Laboratory results as given in US20100291605A1, “ASSAYS FOR S-ADENOSYLMETHIONINE-DEPENDENT […]” (WASHINGTON STATE UNIVERSITY RESEARCH FOUNDATION, priority 2006, published 2010).
Where no end group is shown, it is not given here. acyl = not defined here

What was measured:
PRMT1 = PRMT1 (Rattus norvegicus, UniProt Q63009); assay: enzyme-coupled continuous spectrophotometric methyltransferase assay (265 nm); details: for Vmax, R3 compared with JMH1: peptide substrates of PRMT1, in words
adenine deaminase = adenine deaminase (Bacillus subtilis, UniProt P39761); format: biochemical; details: hypoxanthine 3.5 μM to 142 μM, in the presence of 13.3 μM adenine
adenine deaminase, sequence (P39761 whole entry): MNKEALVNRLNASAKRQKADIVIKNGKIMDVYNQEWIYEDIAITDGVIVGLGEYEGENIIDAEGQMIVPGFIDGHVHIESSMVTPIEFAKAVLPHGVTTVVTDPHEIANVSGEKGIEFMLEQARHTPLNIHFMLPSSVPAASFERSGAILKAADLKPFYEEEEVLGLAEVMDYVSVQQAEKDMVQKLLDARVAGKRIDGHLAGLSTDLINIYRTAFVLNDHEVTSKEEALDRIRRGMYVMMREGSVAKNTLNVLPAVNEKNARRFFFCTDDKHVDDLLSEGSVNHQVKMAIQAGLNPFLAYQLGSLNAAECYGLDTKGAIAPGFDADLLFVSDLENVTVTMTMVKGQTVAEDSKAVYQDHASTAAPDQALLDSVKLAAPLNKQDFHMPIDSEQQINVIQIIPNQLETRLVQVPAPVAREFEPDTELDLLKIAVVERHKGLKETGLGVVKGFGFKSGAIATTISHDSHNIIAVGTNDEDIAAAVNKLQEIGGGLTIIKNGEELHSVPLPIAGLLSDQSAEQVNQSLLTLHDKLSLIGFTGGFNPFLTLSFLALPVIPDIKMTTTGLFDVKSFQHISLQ

PRMT1, sequence (Q63009 whole entry): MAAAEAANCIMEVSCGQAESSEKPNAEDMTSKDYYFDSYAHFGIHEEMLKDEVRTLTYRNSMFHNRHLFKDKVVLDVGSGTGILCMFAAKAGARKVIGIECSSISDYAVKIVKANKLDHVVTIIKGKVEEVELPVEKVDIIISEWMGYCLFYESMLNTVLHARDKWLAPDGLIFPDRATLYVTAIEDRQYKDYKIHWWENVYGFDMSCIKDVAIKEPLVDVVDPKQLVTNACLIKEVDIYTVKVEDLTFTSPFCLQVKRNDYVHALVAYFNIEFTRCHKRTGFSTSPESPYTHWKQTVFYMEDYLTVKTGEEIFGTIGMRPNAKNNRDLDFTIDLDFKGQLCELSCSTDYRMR

Molecule: acylKGGFGGRGGFGGK (SEQ ID NO:2) (acyl-KGGFGGRGGFGGK; reading uncertain; also: N-terminal acyl group not given here, printed as acylKGGFGGRGGFGGK) [JMH1]
- Vmax, R3 compared with JMH1 (PRMT1): similar

Molecule: acylSGRGKGGKGLGKGGAK (SEQ ID NO:1) [H4 peptide]
- Vmax (PRMT1; peptide substrate of PRMT1): 5.7 ± 0.2 µM/min

Molecule: acylGGRGGFGGRGGFGGRGGFG (SEQ ID NO:3) [R3]
- rate, continuous spectrophotometric assay (PRMT1; 2 μM PRMT1, 211 μM R3): 5.1±0.2 μM AdoHyc formed/min
- Vmax, R3 compared with JMH1 (PRMT1): similar

Molecule: O=c1[nH]cnc2nc[nH]c12 [hypoxanthine]
- inhibition of adenine deaminase (adenine deaminase): did not inhibit
